Measurements published in publication PMC9851200, “Multiparameter phenotypic screening for endogenous TFEB and TFE3 translocation identifies novel chemical series modulating lysosome function” (Autophagy, 2022).

Columns and labels:
Format in all cases: binding
[1] = molecular target: kinases (KINOMEscan panel) (Homo sapiens, UniProt P00519, H396P); conditions: NEW KINOMEscan
[2] = molecular target: kinases (KINOMEscan panel) (Homo sapiens, UniProt Q7KZI7); conditions: MARK2; NEW KINOMEscan
[3] = molecular target: kinases (KINOMEscan panel) (Homo sapiens, UniProt P07949, M918T); conditions: NEW KINOMEscan
[4] = molecular target: T1, kinases (KINOMEscan panel) (Homo sapiens, UniProt Q16566); conditions: CAMK4; NEW KINOMEscan
T1 sequence (Q16566 1-473): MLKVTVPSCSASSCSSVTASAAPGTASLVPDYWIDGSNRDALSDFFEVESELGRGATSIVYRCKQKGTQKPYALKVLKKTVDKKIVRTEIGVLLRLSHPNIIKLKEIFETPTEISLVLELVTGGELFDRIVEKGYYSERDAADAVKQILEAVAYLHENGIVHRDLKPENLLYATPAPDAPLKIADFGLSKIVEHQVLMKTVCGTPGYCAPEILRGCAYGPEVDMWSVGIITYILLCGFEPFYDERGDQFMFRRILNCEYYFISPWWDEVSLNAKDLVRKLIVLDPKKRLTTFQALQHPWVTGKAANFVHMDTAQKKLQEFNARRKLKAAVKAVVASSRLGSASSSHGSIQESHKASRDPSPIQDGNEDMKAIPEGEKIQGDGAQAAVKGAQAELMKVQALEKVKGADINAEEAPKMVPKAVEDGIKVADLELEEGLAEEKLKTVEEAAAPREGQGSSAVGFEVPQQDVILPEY

[5] = molecular target: T2, kinases (KINOMEscan panel) (Homo sapiens, UniProt Q96PN8); conditions: kinase TSSK3; NEW KINOMEscan
T2 sequence (Q96PN8 1-268): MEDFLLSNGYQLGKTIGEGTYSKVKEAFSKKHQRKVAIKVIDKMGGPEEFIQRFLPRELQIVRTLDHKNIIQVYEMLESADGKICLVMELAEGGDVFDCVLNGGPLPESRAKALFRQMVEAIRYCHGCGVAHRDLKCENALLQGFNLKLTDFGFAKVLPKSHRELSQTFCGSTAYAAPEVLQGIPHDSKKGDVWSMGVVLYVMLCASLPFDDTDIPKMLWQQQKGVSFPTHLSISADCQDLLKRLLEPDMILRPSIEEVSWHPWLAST

[6] = molecular target: kinases (KINOMEscan panel) (Homo sapiens, UniProt P23458); conditions: JAK1(JH1domain-catalytic); NEW KINOMEscan
[7] = molecular target: kinases (KINOMEscan panel) (Homo sapiens, UniProt P19525); conditions: kinase ElF2AK2; NEW KINOMEscan
[8] = molecular target: kinases (KINOMEscan panel) (Homo sapiens, UniProt Q9UIK4); conditions: kinase DAPK2; NEW KINOMEscan
[9] = molecular target: T3, kinases (KINOMEscan panel) (Homo sapiens, UniProt Q8N752); conditions: CSNK1A1L; NEW KINOMEscan
T3 sequence (Q8N752 1-337): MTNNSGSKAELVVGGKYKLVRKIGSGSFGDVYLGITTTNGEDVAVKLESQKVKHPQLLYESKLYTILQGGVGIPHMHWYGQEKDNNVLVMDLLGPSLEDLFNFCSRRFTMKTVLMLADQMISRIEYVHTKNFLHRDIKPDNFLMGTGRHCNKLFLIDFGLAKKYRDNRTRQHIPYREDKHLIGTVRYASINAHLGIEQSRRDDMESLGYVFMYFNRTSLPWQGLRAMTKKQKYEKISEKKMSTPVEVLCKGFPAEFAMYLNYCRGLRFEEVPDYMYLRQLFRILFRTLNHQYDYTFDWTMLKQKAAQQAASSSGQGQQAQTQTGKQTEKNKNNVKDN

[10] = molecular target: T4, kinases (KINOMEscan panel) (Homo sapiens, UniProt Q02156); conditions: kinase PRKCE; NEW KINOMEscan
T4 sequence (Q02156 1-737): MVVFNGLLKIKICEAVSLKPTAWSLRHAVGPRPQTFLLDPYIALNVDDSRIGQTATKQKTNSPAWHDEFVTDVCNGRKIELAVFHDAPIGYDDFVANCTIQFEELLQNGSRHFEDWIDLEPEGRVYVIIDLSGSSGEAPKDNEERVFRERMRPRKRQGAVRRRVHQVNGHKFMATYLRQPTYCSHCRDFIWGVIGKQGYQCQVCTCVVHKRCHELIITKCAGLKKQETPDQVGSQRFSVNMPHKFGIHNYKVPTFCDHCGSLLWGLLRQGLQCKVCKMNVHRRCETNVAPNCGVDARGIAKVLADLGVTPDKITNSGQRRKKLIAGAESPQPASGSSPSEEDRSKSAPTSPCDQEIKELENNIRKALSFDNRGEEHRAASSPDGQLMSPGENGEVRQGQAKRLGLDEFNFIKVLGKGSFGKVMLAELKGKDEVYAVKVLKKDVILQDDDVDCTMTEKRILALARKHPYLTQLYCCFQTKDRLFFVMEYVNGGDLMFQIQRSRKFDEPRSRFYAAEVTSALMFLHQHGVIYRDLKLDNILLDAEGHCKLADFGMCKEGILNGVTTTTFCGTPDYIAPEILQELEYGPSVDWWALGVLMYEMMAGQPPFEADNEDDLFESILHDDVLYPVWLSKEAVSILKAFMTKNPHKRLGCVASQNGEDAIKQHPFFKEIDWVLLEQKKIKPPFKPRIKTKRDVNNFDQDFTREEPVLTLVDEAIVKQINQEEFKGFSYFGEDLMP

[11] = molecular target: kinases (KINOMEscan panel) (Homo sapiens, UniProt O95747); conditions: NEW KINOMEscan
[12] = molecular target: kinases (KINOMEscan panel) (Homo sapiens, UniProt Q9UPE1); conditions: SRPK3; NEW KINOMEscan
[13] = molecular target: kinases (KINOMEscan panel) (Homo sapiens, UniProt P35590); conditions: TIE1; NEW KINOMEscan
[14] = molecular target: kinases (KINOMEscan panel) (Homo sapiens, UniProt P00519, T315I); conditions: NEW KINOMEscan; for KINOMEscan ABL1(T315I)-nonphosphorylated: kinase ABL1(T315I)-nonphosphorylated; for KINOMEscan ABL1(T315I)-phosphorylated: kinase ABL1(T315I)-phosphorylated

Chain of kinases (KINOMEscan panel) (Homo sapiens, UniProt P19525) (P19525 whole entry): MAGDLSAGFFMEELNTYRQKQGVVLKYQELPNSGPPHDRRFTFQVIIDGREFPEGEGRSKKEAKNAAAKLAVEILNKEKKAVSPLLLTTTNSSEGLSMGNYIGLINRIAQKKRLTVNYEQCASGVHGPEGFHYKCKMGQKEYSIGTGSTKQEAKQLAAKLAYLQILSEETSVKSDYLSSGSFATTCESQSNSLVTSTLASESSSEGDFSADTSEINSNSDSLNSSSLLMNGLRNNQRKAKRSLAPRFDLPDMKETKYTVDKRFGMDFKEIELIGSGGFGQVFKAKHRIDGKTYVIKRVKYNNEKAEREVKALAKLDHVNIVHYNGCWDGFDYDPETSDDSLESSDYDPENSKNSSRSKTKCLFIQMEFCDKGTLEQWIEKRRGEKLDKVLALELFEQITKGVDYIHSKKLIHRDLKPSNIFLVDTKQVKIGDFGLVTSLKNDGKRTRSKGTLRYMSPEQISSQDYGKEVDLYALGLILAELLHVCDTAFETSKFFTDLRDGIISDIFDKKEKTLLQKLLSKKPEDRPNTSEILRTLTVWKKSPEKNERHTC
Chain of kinases (KINOMEscan panel) (Homo sapiens, UniProt P35590) (P35590 22-1138): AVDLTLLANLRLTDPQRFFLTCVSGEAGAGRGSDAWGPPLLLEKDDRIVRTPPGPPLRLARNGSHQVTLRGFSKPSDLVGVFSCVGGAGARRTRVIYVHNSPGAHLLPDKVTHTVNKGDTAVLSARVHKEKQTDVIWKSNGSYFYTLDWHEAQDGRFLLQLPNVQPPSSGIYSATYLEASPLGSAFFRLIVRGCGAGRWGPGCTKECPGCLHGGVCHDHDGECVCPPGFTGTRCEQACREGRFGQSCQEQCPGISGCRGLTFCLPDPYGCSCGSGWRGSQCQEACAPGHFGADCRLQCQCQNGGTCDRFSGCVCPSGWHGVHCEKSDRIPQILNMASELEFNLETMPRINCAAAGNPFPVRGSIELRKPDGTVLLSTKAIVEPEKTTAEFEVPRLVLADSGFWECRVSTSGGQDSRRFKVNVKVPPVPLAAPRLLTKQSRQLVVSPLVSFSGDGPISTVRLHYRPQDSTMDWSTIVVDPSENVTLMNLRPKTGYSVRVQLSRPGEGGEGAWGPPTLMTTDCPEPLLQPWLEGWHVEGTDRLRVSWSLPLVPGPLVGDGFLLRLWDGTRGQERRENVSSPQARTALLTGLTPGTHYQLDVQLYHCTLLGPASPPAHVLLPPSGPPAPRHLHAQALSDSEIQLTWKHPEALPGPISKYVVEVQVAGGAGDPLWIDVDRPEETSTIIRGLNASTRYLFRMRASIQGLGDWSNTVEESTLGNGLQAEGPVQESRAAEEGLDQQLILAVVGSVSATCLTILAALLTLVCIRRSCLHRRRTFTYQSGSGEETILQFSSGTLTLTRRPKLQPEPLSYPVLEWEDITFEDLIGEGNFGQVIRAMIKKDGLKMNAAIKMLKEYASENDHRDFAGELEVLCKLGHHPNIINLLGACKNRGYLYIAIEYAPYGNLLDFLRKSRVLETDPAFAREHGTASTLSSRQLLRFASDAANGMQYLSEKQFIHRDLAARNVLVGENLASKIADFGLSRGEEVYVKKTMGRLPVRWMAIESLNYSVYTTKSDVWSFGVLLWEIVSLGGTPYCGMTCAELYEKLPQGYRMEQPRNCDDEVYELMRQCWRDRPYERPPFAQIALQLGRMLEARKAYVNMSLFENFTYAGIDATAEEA
Chain of kinases (KINOMEscan panel) (Homo sapiens, UniProt P23458) (P23458 whole entry): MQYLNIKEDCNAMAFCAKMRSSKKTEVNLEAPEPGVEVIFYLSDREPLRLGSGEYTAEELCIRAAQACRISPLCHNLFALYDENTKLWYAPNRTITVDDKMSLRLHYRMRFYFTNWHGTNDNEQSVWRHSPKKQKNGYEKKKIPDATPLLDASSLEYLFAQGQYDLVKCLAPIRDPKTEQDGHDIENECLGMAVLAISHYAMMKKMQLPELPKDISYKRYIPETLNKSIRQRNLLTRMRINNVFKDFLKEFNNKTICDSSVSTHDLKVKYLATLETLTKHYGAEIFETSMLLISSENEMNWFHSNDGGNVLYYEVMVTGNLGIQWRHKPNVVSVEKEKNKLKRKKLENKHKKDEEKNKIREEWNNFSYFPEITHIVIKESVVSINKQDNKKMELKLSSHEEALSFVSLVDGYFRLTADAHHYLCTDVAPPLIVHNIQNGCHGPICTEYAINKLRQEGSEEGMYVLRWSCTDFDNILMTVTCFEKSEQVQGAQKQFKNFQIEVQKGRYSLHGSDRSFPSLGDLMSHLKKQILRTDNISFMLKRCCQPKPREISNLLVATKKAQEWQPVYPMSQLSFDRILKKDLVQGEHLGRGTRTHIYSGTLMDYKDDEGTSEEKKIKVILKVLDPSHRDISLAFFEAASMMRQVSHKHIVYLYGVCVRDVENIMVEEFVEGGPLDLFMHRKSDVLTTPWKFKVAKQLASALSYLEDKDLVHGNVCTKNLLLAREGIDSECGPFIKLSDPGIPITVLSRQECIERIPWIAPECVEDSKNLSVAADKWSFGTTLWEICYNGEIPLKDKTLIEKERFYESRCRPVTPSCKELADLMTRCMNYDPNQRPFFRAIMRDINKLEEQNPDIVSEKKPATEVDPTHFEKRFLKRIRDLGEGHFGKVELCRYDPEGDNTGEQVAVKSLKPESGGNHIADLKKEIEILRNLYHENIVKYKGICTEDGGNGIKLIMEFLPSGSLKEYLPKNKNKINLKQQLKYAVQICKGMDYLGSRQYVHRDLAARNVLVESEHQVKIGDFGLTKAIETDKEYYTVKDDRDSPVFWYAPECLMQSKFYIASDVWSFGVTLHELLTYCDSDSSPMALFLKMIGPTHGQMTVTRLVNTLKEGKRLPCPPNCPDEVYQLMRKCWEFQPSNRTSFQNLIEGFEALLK
Chain of kinases (KINOMEscan panel) (Homo sapiens, UniProt Q7KZI7) (Q7KZI7 whole entry): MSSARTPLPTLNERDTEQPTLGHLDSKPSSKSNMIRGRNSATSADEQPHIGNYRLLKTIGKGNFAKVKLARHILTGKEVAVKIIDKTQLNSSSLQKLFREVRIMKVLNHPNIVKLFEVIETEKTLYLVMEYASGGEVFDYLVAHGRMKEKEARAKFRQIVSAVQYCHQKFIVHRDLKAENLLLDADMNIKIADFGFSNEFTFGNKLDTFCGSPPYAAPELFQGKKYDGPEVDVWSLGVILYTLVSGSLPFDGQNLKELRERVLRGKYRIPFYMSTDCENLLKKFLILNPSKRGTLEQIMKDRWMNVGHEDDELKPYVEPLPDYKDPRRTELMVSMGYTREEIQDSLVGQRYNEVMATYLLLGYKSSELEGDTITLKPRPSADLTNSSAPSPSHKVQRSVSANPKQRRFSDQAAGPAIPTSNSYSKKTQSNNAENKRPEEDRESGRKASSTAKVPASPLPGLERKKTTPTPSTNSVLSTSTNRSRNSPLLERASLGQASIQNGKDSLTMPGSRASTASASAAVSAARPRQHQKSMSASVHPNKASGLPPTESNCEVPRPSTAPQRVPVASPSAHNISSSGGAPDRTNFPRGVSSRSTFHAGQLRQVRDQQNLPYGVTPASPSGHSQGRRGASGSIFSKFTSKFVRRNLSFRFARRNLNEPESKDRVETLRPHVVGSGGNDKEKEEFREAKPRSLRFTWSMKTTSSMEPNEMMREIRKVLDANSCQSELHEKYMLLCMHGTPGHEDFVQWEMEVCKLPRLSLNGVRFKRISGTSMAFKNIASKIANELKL
Chain of kinases (KINOMEscan panel) (Homo sapiens, UniProt P07949, M918T) (P07949 29-1114 M918T): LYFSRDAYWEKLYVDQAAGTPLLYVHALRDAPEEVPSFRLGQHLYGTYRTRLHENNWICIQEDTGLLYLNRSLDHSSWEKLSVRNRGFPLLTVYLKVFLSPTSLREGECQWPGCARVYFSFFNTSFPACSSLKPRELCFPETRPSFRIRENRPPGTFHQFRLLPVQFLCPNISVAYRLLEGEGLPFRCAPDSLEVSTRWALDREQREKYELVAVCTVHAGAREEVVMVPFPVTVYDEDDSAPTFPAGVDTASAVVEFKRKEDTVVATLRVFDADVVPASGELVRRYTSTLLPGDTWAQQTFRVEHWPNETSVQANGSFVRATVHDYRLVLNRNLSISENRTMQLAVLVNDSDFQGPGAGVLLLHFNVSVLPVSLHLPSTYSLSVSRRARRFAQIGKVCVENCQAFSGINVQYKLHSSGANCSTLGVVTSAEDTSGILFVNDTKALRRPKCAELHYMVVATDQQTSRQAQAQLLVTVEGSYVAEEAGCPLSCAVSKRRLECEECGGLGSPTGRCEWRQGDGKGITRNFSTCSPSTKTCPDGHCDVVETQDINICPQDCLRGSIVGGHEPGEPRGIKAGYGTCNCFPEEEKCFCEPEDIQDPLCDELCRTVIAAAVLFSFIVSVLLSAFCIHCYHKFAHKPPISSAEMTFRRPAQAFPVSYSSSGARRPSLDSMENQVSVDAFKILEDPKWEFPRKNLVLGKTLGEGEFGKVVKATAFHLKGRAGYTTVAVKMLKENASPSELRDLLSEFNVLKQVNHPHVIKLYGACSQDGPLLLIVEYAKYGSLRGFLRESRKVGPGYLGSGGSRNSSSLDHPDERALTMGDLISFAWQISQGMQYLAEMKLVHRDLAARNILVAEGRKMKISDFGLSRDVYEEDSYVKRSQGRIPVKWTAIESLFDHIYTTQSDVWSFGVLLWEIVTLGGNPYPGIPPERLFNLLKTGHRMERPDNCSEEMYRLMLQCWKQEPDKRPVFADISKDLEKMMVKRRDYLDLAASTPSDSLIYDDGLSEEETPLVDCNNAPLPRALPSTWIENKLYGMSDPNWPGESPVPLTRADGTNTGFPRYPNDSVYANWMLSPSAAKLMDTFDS
Chain of kinases (KINOMEscan panel) (Homo sapiens, UniProt Q9UIK4) (Q9UIK4 whole entry): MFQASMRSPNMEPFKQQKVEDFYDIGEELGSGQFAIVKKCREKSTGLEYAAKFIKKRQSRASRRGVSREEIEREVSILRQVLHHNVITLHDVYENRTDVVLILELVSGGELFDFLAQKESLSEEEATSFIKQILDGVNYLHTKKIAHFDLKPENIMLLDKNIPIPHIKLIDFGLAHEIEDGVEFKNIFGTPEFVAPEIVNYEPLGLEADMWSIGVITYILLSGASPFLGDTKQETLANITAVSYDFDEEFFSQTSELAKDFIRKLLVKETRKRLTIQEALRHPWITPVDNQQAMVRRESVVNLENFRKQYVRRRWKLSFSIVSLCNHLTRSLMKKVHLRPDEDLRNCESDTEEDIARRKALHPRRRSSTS

SMILES | KINOMEscan ABL1(H396P)-nonphosphorylated [1] | KINOMEscan ABL1(H396P)-phosphorylated [1] | KINOMEscan MARK2 [2] | KINOMEscan RET(M918T) [3] | KINOMEscan CAMK4 [4] | KINOMEscan TSSK3 [5] | KINOMEscan JAK1(JH1domain-catalytic) [6] | KINOMEscan ElF2AK2 [7] | KINOMEscan DAPK2 [8] | KINOMEscan CSNK1A1L [9] | KINOMEscan PRKCE [10] | KINOMEscan OSXR1 [11] | KINOMEscan SRPK3 [12] | KINOMEscan TIE1 [13] | KINOMEscan ABL1(T315I)-nonphosphorylated [14] | KINOMEscan ABL1(T315I)-phosphorylated [14]
Cc1cccc(-c2nc(Nc3ccc4nn(C)cc4c3)c3ccccc3n2)n1 [NK167] | 4 | 0 | 0 | 0 | 2 | 0 | 0 | 19 | 0 | 0 | 0 | 11 | 0 | 0 | 0 | 4
Cc1cccc(-c2nc(N(C)c3ccc4ncsc4c3)c3ccccc3n2)n1 [NK-161] | 0 | 0 | 0 | 15 | 7 | 6 | 0 | 7 | 0 | 12 | 7 | 25 | 1 | 0 | 0 | 3
